Measured values as given in US5192766A, “N-acryloylpiperazine derivatives, their preparation and their use as PAF antagonists” (Sankyo Company, Limited, priority 1989, dated 1993).

Assays:
PAF-induced hypotension = assay: Inhibition of PAF-induced hypotension; format: in vivo, Wistar-Imamichi rats; conditions: Rattus norvegicus, iv, 1 min; anesthetized rats; l-C16:0 PAF 10 ng/kg i.v.; test compound i.v. cumulatively, 1 min before PAF; read-out: Inhibitory effect ID50
Procedure: Inhibition of PAF-induced hypotension
The test animals used were Wistar-Imamichi rats, each weighing from 350 to 450 g, anesthetized with Inactin (90 mg/kd, intraperitoneally).
Blood pressure was continuously measured throughout the experiment through a cannula inserted into the femoral artery. Each drug sample to be tested was intravenously injected through a cannula inserted into the femoral vein.
At first, l-C16:0 PAF was injected intravenously in amounts of 10 ng/kg at each injection at intervals of 5 minutes until the degree of the hypotensive response became constant. Then, each drug sample to be treated was intravenously injected. After one minute, the same dose of PAF was administered again. The drug sample was cumulatively administered. From its inhibition rate against the PAF-induced hypotensive effect, the 50% inhibitive dose (ID50) was determined, and is regarded as an index of PAF-antagonist activity. For administration, the PAF was dissolved in physiological saline solution containing 0.25% w/v of bovine serum albumin (BSA). The compounds under test were dissolved in dimethylformamide for use.
CV-3988 is disclosed in U.S. Pat. No. 4,408,052, and is structurally related to PAF itself.
In this Table, the compounds of the invention are identified by the number of the foregoing Example in which they were prepared.

[1] = tested on: blood platelet (PAF-induced aggregation); assay: Inhibitory effect in vitro against PAF-induced blood platelet aggregation; format: cell-based; conditions: Oryctolagus cuniculus, 5 min; rabbit platelet rich plasma; l-C16:0 PAF final 10^-8 ~3×10^-8 M; 5 min observation
Procedure: Inhibitory effect in vitro against PAF-induced blood platelet aggregation
Blood samples were drawn from a rabbit and one part by volume of each sample was immediately mixed with 1/9 part of a 3.8% w/v aqueous solution of sodium citrate. The samples were centrifuged at 150×G at room temperature for 15 minutes to obtain a platelet rich plasma (PRP) fraction from the upper layer. The remains were further centrifuged at 1,000×G for 15 minutes to obtain a platelet poor plasma (PPP) fraction from the upper layer. The PRP and PPP fractions were mixed appropriately, to obtain a sample in which the final count of blood platelets was adjusted to be 6×10^5 per ul. According to the method reported by Born et al. [G. V. R. Born et al.: J. Physiol. 62, 67-68 (1962)], blood platelet aggregation was determined by an increase in light transmission measured using an aggregometer. 3 ul of a solution of the test compound in dimethyl sulfoxide were added to 272 ul of PRP, and, after 1 minute, 25 ul of a physiological saline solution containing l-c16:0 PAF (at a final concentration of 10^-8 ~3×10^-8 M) were added. […] At the end of this value and the value of PAF-induced aggregation which was observed when dimethyl sulfoxide only was used without the addition of any test compound. IC50 values were calculated from the dose-response curve.

## COc1cc(C(=O)N2CCN(C(=O)C=C(c3cccs3)c3cccs3)CC2)cc(OC)c1OC [Example 4, 1-[3,3-Bis(2-thienyl)acryloyl]-4-(3,4,5-trimethoxybenzoyl)piperazine]
PAF-induced hypotension
  ED50: 0.074 mg/kg

## COc1ccc(/C(=C\C(=O)N2CCN(C(=O)c3cc(OC)c(OC)c(OC)c3)CC2)c2cccc(Cl)c2)cc1OC [Example 18, 1-[(E)-3-(3-Chlorophenyl)-3-(3,4-dimethoxyphenyl)acryloyl]-4-(3,4,5-trimethoxybenzoyl)piperazine]
PAF-induced hypotension
  ED50: 0.026 mg/kg

## COc1ccc(/C(=C\C(=O)N2CCN(C(=O)c3cc(OC)c(OC)c(OC)c3)CC2)c2cccc(C)c2)cc1OC [Example 40, 1-[(Z)-3-(3,4-Dimethoxyphenyl)-3-(3-methylphenyl)acryloyl]-4-(3,4,5-trimethoxybenzoyl)piperazine]
[1]
  IC50: 0.11 µM

## COc1ccc(/C(=C/C(=O)N2CCN(C(=O)c3cc(OC)c(OC)c(OC)c3)CC2)c2cccc(F)c2)cc1 [Example 74, 1-[(Z)-3-(4-Methoxyphenyl)-3-(3-fluorophenyl)acryloyl]-4-(3,4,5-trimethoxybenzoyl)piperazine]
[1]
  IC50: 0.058 µM
PAF-induced hypotension
  ED50: 0.0055 mg/kg

## CCCOc1cccc(/C(=C/C(=O)N2CCN(C(=O)c3cc(OC)c(OC)c(OC)c3)CC2)c2cccc(Cl)c2)c1 [Example 70, 1-[(Z)-3-(3-Propoxyphenyl)-3-(3-chlorophenyl)acryloyl]-4-(3,4,5-trimethoxybenzoyl)piperazine]
[1]
  IC50: 0.03 µM
PAF-induced hypotension
  ED50: 0.0033 mg/kg

## CCc1ccc(/C(=C/C(=O)N2CCN(C(=O)c3cc(OC)c(OC)c(OC)c3)CC2)c2ccc(Cl)c(Cl)c2)cc1 [Example 52, 1-[(Z)-3-(3,4-Dichlorphenyl)-3-(4-ethylphenyl)acryloyl]-4-(3,4,5-trimethoxybenzoyl)piperazine]
[1]
  IC50: 0.03 µM
PAF-induced hypotension
  ED50: 0.0084 mg/kg

## COc1ccc(/C(=C/C(=O)N2CCN(C(=O)c3cc(OC)c(OC)c(OC)c3)CC2)c2cccc(C(F)(F)F)c2)cc1OC [Example 33, 1-[(E)-3-(3,4-Dimethoxyphenyl)-3-(3-trifluoromethylphenyl)acryloyl]-4-(3,4,5-trimethoxybenzoyl)piperazine]
[1]
  IC50: 0.043 µM
PAF-induced hypotension
  ED50: 0.0078 mg/kg

## COc1ccc(/C(=C/C(=O)N2CCN(C(=O)c3cc(OC)c(OC)c(OC)c3)CC2)c2ccc(OC)c(OC)c2)cc1 [Example 30, 1-[(Z)-3-(3,4-Dimethoxyphenyl)-3-(4-methoxyphenyl)acryloyl]-4-(3,4,5-trimethoxybenzoyl)piperazine]
[1]
  IC50: 0.15 µM
PAF-induced hypotension
  ED50: 0.044 mg/kg

## COc1ccc(/C(=C\C(=O)N2CCN(C(=O)c3cc(OC)c(OC)c(OC)c3)CC2)c2ccc(Cl)cc2)cc1OC [Example 16, 1-[(Z)-3-(4-Chlorophenyl)-3-(3,4-dimethoxyphenyl)acryloyl]-4-(3,4,5-trimethoxybenzoyl)piperazine]
PAF-induced hypotension
  ED50: 0.074 mg/kg

## COc1ccc(/C(=C/C(=O)N2CCN(C(=O)c3cc(OC)c(OC)c(OC)c3)CC2)c2cccc(Cl)c2)cc1OC [Example 17, 1-[(Z)-3-(3-Chlorophenyl)-3-(3,4-dimethoxyphenyl)acryloyl]-4-(3,4,5-trimethoxybenzoyl)piperazine]
[1]
  IC50: 0.063 µM
PAF-induced hypotension
  ED50: 0.0083 mg/kg

## COc1cc(C(=O)N2CCN(C(=O)/C=C(/c3cccc(C)c3)c3ccc(Cl)c(Cl)c3)CC2)cc(OC)c1OC [Example 37, 1-[(Z)-3-(3,4-Dichlorophenyl)-3-(3-methylphenyl)acryloyl]-4-(3,4,5-trimethoxybenzoyl)piperazine]
[1]
  IC50: 0.11 µM

## COc1ccc(/C(=C\C(=O)N2CCN(C(=O)c3cc(OC)c(OC)c(OC)c3)CC2)c2ccc(OC)c(OC)c2)cc1 [Example 29, 1-[(E)-3-(3,4-Dimethoxyphenyl)-3-(4-methoxyphenyl)acryloyl]-4-(3,4,5-trimethoxybenzoyl)piperazine]
[1]
  IC50: 0.18 µM
PAF-induced hypotension
  ED50: 0.048 mg/kg

## COc1ccc(/C(=C/C(=O)N2CCN(C(=O)c3cc(OC)c(OC)c(OC)c3)CC2)c2cccc(C)c2)cc1OC [Example 39, 1-[(E)-3-(3,4-Dimethoxyphenyl)-3-(3-methylphenyl)acryloyl]-4-(3,4,5-trimethoxybenzoyl)piperazine]
PAF-induced hypotension
  ED50: 0.008 mg/kg

## COc1ccc(/C(=C/C(=O)N2CCN(C(=O)c3cc(OC)c(OC)c(OC)c3)CC2)c2ccc(C)cc2)cc1OC [Example 35, 1-[(E)-3-(3,4-Dimethoxyphenyl)-3-(4-methylphenyl)acryloyl]-4-(3,4,5-trimethoxybenzoyl)piperazine]
[1]
  IC50: 0.11 µM
PAF-induced hypotension
  ED50: 0.012 mg/kg

## COc1ccc(/C(=C\C(=O)N2CCN(C(=O)c3cc(OC)c(OC)c(OC)c3)CC2)c2ccccc2)cc1OC [Example 8, 1-[(Z)-3-(3,4-Dimethoxyphenyl)cinnamoyl]-4-(3,4,5-trimethoxybenzoyl)piperazine]
PAF-induced hypotension
  ED50: 0.058 mg/kg

## COc1ccc(/C(=C\C(=O)N2CCN(C(=O)c3cc(OC)c(OC)c(OC)c3)CC2)c2cccc(C(F)(F)F)c2)cc1OC [Example 34, 1-[(Z)-3-(3,4-Dimethoxyphenyl)-3-(3-trifluoromethylphenyl)acryloyl]-4-(3,4,5-trimethoxybenzoyl)piperazine]
PAF-induced hypotension
  ED50: 0.021 mg/kg

## COc1ccc(/C(=C\C(=O)N2CCN(C(=O)c3cc(OC)c(OC)c(OC)c3)CC2)c2ccc(C)cc2)cc1OC [Example 36, 1-[(Z)-3-(3,4-Dimethoxyphenyl)-3-(4-methylphenyl)acryloyl]-4-(3,4,5-trimethoxybenzoyl)piperazine]
[1]
  IC50: 0.22 µM
PAF-induced hypotension
  ED50: 0.039 mg/kg

## CCCOc1ccc(/C(=C/C(=O)N2CCN(C(=O)c3cc(OC)c(OC)c(OC)c3)CC2)c2ccccc2)cc1 [Example 53, 1-[(E)-3-Phenyl-3-(4-propoxyphenyl)acryloyl]-4-(3,4,5-trimethoxybenzoyl)piperazine]
[1]
  IC50: 0.052 µM
PAF-induced hypotension
  ED50: 0.0074 mg/kg

## COc1ccc(/C(=C/C(=O)N2CCN(C(=O)c3cc(OC)c(OC)c(OC)c3)CC2)c2cc(C)cc(C)c2)cc1 [Example 82, 1-[(Z)-3-(4-Methoxyphenyl)-3-(3,5-dimethylphenyl)acryloyl]-4-(3,4,5-trimethoxybenzoyl)piperazine]
[1]
  IC50: 0.0099 µM
PAF-induced hypotension
  ED50: 0.013 mg/kg

## COc1ccc(/C(=C/C(=O)N2CCN(C(=O)c3cc(OC)c(OC)c(OC)c3)CC2)c2cc(Cl)ccc2Cl)cc1 [Example 80, 1-[(Z)-3-(4-Methoxyphenyl)-3-(2,5-dichlorophenyl)acryloyl]-4-(3,4,5-trimethoxybenzoyl)piperazine]
[1]
  IC50: 0.028 µM
PAF-induced hypotension
  ED50: 0.0065 mg/kg

## COc1ccc(/C(=C/C(=O)N2CCN(C(=O)c3cc(OC)c(OC)c(OC)c3)CC2)c2ccc(Cl)cc2Cl)cc1 [Example 78, 1-[(Z)-3-(4-Methoxyphenyl)-3-(2,4-dichlorophenyl)acryloyl]-4-(3,4,5-trimethoxybenzoyl)piperazine]
[1]
  IC50: 0.029 µM
PAF-induced hypotension
  ED50: 0.0073 mg/kg

## CCCOc1ccc(/C(=C/C(=O)N2CCN(C(=O)c3cc(OC)c(OC)c(OC)c3)CC2)c2cccc(Cl)c2)cc1 [Example 71, 1-[(Z)-3-(4-Propoxyphenyl)-3-(3-chlorophenyl)acryloyl]-4-(3,4,5-trimethoxybenzoyl)piperazine]
[1]
  IC50: 0.038 µM
PAF-induced hypotension
  ED50: 0.0074 mg/kg

## COc1cc(C(=O)N2CCN(C(=O)C=C(c3ccc(F)cc3)c3ccc(F)cc3)CC2)cc(OC)c1OC [Example 25, 1[Bis(4-fluorophenyl)acryloyl]-4-(3,4,5-trimethoxybenzoyl)piperazine]
PAF-induced hypotension
  ED50: 0.052 mg/kg

## CCc1ccc(/C(=C/C(=O)N2CCN(C(=O)c3cc(OC)c(OC)c(OC)c3)CC2)c2cc(Cl)cc(Cl)c2)cc1 [Example 86, 1-[(Z)-3-(4-Ethylphenyl)-3-(3,5-dichlorophenyl)acryloyl]-4-(3,4,5-trimethoxybenzoyl)piperazine]
PAF-induced hypotension
  ED50: 0.015 mg/kg

## COc1ccc(/C(=C/C(=O)N2CCN(C(=O)c3cc(OC)c(OC)c(OC)c3)CC2)c2c(Cl)cccc2Cl)cc1 [Example 79, 1-[(Z)-3-(4-Methoxyphenyl)-3-(2,6-dichlorophenyl)acryloyl]-4-(3,4,5-trimethoxybenzoyl)piperazine]
PAF-induced hypotension
  ED50: 0.0066 mg/kg

## COc1cc(C(=O)N2CCN(C(=O)/C=C(\c3ccccc3)c3ccc4ccccc4c3)CC2)cc(OC)c1OC [Example 48, 1-[(E)-3-(2-Naphthyl)-3-phenylacryloyl]-4-(3,4,5-trimethoxybenzoyl)piperazine]
PAF-induced hypotension
  ED50: 0.012 mg/kg

## CCOc1ccc(/C(=C/C(=O)N2CCN(C(=O)c3cc(OC)c(OC)c(OC)c3)CC2)c2cccc(F)c2)cc1 [Example 88, 1-[(Z)-3-(4-Ethoxyphenyl)-3-(3-fluorophenyl)acryloyl]-4-(3,4,5-trimethoxybenzoyl)piperazine]
PAF-induced hypotension
  ED50: 0.092 mg/kg
